{"source": "paper PMC7316778", "about": "(Nature Communications, 2020)", "key": {"[1]": {"biological_target": "ADCK3 (Homo sapiens, UniProt Q8NI60)", "sequence (Q8NI60 163-647)": "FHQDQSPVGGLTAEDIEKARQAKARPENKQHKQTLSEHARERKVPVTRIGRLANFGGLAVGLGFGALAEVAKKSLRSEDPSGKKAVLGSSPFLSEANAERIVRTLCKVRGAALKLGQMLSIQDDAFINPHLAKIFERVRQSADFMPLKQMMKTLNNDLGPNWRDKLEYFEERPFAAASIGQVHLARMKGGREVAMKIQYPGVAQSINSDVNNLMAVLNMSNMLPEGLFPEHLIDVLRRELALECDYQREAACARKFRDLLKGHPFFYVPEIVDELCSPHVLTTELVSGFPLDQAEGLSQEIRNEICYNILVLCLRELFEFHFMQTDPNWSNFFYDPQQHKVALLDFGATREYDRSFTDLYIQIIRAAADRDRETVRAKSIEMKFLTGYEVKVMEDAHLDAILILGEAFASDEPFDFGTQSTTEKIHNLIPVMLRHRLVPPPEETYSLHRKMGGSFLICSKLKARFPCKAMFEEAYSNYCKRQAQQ", "test": "SelectScreen kinase assay"}, "[2]": {"biological_target": "CDK11/cyclin C (Homo sapiens, UniProt Q9BWU1)", "sequence (Q9BWU1 whole entry)": "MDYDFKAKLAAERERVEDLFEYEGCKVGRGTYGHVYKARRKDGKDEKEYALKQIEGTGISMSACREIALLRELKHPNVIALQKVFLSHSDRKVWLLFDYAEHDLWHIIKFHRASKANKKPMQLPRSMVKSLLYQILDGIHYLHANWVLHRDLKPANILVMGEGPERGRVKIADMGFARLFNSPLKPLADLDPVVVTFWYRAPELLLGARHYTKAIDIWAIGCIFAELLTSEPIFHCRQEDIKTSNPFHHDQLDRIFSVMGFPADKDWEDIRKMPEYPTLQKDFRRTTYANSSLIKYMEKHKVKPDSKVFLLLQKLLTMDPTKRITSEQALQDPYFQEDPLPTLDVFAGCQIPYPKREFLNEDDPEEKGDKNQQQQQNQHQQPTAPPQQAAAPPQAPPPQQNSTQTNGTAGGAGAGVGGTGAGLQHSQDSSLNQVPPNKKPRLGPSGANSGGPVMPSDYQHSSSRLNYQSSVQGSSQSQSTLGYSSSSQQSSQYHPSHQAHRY", "sequence (P24863 whole entry partner)": "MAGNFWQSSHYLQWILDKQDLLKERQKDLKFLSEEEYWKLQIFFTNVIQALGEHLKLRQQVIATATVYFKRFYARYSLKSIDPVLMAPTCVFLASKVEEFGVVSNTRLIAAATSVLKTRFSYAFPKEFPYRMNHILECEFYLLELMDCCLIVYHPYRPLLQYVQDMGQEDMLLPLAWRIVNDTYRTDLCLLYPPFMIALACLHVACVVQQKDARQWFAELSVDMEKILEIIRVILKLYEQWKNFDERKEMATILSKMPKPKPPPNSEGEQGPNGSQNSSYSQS", "test": "SelectScreen kinase assay", "conditions": "for Inhibition at 1 µM (%): CDK11/cyclin C, LanthaScreen Binding"}, "[3]": {"biological_target": "CDK6/cyclin D1 (Homo sapiens, UniProt Q00534)", "test": "SelectScreen kinase assay", "conditions": "1 h, 1 μM WEL028, 1 h preincubation"}, "[4]": {"biological_target": "CHEK1 (CHK1) (Homo sapiens, UniProt O14757)", "test": "SelectScreen kinase assay", "conditions": "1 μM WEL028, 1 h preincubation"}, "[5]": {"biological_target": "CSNK1A1 (CK1 alpha 1) (Homo sapiens, UniProt P48729)", "sequence (P48729 whole entry)": "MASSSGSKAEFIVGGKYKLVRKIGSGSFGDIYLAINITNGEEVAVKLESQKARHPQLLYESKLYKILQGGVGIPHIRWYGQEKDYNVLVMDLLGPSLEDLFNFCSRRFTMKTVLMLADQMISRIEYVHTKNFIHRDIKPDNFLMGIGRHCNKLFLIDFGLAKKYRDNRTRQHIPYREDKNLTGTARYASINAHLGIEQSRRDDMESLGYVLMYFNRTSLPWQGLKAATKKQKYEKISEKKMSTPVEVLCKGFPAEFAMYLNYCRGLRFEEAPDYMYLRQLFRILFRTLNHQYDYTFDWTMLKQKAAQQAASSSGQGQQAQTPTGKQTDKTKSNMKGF", "test": "SelectScreen kinase assay"}, "[6]": {"biological_target": "EPHB1 (Homo sapiens, UniProt P54762)", "sequence (P54762 18-984)": "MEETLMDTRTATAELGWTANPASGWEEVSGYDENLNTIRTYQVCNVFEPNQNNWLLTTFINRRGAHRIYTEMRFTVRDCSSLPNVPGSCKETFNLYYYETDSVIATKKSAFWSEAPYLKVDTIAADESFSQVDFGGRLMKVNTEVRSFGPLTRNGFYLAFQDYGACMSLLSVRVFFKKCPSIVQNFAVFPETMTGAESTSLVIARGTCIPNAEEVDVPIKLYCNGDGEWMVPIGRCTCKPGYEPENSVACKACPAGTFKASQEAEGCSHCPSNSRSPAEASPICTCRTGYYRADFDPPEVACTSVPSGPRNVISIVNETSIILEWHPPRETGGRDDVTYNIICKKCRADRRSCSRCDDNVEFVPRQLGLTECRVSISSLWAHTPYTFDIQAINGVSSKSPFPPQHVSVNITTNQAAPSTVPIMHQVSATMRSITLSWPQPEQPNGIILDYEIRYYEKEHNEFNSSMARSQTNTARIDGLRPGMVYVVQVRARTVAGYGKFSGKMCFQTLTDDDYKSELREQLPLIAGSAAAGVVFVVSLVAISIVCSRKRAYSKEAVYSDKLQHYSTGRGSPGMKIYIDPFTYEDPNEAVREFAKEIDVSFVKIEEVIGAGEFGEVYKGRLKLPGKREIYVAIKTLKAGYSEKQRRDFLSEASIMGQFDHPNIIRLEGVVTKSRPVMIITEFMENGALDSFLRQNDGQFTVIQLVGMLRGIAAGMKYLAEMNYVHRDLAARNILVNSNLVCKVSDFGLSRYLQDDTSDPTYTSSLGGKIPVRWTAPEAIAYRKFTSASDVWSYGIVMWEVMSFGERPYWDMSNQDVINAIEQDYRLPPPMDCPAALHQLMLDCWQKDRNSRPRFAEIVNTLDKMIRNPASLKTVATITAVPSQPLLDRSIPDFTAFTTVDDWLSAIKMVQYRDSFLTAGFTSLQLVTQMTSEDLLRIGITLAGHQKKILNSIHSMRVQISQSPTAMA", "test": "SelectScreen kinase assay"}, "[7]": {"biological_target": "FER (Homo sapiens, UniProt P16591)", "sequence (P16591 whole entry)": "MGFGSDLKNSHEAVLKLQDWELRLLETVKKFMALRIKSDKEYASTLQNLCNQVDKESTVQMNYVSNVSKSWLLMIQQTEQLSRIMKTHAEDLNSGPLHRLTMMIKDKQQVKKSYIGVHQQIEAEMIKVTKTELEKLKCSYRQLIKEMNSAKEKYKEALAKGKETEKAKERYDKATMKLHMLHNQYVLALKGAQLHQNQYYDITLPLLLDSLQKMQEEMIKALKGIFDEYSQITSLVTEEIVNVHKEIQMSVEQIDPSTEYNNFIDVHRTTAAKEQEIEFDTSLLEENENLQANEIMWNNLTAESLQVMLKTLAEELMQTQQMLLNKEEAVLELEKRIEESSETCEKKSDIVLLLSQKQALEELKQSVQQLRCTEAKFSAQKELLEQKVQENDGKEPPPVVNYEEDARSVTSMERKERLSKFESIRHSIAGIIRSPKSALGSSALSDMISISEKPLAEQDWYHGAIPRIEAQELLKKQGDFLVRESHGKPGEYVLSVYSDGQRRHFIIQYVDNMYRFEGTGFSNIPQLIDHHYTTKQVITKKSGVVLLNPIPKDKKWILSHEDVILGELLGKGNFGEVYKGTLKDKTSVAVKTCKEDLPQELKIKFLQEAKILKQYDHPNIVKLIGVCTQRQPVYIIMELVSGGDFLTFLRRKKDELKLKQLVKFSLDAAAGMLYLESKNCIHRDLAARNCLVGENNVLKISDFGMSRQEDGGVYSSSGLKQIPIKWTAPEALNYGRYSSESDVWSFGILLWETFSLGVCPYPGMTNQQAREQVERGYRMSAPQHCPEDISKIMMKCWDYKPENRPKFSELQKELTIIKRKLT", "test": "SelectScreen kinase assay"}, "[8]": {"biological_target": "IRAK1 (Homo sapiens, UniProt P51617)", "sequence (P51617 whole entry)": "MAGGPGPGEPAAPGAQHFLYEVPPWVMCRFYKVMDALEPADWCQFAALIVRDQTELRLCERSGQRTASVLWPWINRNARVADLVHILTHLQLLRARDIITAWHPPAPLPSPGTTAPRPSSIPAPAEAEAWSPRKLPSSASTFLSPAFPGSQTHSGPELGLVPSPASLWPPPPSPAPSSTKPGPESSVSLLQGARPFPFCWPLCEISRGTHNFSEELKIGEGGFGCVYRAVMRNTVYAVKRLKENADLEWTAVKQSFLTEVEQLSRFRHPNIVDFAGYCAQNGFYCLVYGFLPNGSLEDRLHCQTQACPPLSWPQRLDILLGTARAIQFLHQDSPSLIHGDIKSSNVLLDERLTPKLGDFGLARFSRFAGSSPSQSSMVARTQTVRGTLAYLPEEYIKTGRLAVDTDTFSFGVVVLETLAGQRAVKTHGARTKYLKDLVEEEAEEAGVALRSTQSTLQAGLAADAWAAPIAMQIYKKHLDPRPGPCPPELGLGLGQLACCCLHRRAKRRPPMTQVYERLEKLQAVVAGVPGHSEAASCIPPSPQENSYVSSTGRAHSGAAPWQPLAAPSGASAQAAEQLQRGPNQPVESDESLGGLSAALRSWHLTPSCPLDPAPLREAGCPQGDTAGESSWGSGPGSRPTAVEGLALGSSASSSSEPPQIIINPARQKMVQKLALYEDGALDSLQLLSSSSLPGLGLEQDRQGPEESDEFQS", "test": "SelectScreen kinase assay"}, "[9]": {"biological_target": "T1, LATS2 (Homo sapiens, UniProt Q9NRM7)", "T1 sequence (Q9NRM7 1-1088)": "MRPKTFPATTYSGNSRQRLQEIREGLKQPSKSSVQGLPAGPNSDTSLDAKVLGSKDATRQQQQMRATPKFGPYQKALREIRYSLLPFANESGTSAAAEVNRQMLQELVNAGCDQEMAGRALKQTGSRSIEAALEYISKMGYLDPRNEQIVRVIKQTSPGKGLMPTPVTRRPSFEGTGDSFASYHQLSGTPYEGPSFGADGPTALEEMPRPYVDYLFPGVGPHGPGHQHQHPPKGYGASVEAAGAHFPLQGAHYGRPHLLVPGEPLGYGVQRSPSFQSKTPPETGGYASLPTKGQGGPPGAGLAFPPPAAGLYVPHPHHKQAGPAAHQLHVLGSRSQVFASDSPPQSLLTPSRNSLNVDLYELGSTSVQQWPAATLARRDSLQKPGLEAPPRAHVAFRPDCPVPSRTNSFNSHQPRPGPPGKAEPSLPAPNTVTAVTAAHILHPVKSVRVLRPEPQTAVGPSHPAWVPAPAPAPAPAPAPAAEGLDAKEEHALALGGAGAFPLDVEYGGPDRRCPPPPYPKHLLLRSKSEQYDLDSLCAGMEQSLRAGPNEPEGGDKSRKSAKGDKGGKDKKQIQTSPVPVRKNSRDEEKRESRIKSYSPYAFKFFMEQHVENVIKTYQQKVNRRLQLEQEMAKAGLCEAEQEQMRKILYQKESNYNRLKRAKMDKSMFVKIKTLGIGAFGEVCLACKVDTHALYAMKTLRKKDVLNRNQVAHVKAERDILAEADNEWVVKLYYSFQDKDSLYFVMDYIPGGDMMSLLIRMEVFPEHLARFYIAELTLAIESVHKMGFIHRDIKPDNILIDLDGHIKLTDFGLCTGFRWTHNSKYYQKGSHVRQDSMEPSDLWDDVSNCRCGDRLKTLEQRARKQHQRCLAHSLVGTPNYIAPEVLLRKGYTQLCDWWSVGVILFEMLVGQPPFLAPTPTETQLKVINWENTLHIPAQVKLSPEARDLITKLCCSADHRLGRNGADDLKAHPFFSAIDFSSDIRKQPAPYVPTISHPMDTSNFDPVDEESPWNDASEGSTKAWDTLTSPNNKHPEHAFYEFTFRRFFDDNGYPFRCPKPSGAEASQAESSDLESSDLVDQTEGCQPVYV", "test": "SelectScreen kinase assay", "conditions": "for Inhibition at 1 µM (%): LATS2, LanthaScreen Binding"}, "[10]": {"biological_target": "PIK3CB/PIK3R1 (p110 beta/p85 alpha) (Homo sapiens, UniProt P42338)", "test": "SelectScreen kinase assay"}, "[11]": {"biological_target": "T2, PKMYT1 (Homo sapiens, UniProt Q99640)", "T2 sequence (Q99640 1-499)": "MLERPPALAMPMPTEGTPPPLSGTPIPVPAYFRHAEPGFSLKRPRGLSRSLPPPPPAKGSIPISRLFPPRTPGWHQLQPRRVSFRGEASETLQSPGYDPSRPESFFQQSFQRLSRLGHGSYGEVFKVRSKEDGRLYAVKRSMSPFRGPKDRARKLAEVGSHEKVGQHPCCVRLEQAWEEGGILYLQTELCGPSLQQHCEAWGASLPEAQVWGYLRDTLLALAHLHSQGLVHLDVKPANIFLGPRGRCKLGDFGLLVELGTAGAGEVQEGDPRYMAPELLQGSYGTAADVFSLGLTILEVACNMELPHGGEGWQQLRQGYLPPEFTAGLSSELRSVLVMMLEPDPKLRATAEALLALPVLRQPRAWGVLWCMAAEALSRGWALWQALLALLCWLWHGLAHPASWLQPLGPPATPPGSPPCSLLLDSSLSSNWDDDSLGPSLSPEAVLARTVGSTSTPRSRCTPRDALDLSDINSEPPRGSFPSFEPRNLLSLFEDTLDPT", "test": "SelectScreen kinase assay"}, "[12]": {"biological_target": "RIPK2 (Homo sapiens, UniProt O43353)", "test": "SelectScreen kinase assay"}, "[13]": {"biological_target": "RPS6KA6 (RSK4) (Homo sapiens, UniProt Q9UK32)", "sequence (Q9UK32 whole entry)": "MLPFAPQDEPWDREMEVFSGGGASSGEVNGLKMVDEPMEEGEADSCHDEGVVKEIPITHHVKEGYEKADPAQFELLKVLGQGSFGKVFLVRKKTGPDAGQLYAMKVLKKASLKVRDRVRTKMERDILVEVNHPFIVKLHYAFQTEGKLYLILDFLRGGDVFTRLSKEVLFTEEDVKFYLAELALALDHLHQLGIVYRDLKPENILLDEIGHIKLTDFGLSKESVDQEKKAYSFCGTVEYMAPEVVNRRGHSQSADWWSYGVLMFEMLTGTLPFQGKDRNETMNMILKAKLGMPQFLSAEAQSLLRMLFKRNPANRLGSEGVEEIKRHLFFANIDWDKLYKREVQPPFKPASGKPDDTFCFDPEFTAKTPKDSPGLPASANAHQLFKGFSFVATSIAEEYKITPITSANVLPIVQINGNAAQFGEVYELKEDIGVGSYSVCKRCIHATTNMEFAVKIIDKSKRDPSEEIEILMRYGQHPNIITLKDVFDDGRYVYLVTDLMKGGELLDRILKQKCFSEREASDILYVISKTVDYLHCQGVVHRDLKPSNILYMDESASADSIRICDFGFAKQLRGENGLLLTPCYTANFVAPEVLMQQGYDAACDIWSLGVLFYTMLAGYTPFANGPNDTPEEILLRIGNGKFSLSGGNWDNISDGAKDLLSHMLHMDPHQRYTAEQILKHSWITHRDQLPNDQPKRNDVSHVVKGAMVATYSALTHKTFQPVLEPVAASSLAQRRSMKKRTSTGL", "test": "SelectScreen kinase assay"}, "[14]": {"biological_target": "TLK1 (Homo sapiens, UniProt Q9UKI8)", "test": "SelectScreen kinase assay"}, "[15]": {"biological_target": "FES^S700C (Homo sapiens, UniProt P07332, S700C)", "test": "Time-dependent probe displacement by WEL033 in lysate"}, "[16]": {"conditions": "read-out: Inhibition at 1 µM (%)"}, "[17]": {"conditions": "1 h, 1 μM WEL028, 1 h preincubation"}}, "note": "Several values for one entry are separate records, joined by “and”; a condition that tells them apart may be missing. Equal values may be shown once. Read-outs that look alike come from different tables or passages of the source.", "data": [{"smiles": "C#CCOc1ccc(Nc2ncc(Cl)c(Nc3ccccc3NC(=O)C=C)n2)c(OC)c1", "note": "[Compound 6]", "values": [{"measurement": "inhibition at 1 µM", "setting": "[1]; 1 h", "result": 2, "unit": "%"}, {"measurement": "inhibition at 1 µM", "setting": "[1]; [16]", "result": 2, "unit": "%"}, {"measurement": "Inhibition (%)", "setting": "[2]; 1 μM WEL028, 1 h preincubation", "result": 5, "unit": "%"}, {"measurement": "Inhibition at 1 µM (%)", "setting": "[2]", "result": 2, "unit": "%"}, {"measurement": "Inhibition at 1 µM (%)", "setting": "[2]; listed as WEL028, 1 µM", "result": 7, "unit": "%"}, {"measurement": "inhibition at 1 µM", "setting": "[3]", "result": -6, "unit": "%"}, {"measurement": "Inhibition (%)", "setting": "[4]", "result": 0, "unit": "%"}, {"measurement": "inhibition at 1 µM", "setting": "[5]; [17]", "result": 9, "unit": "%"}, {"measurement": "Inhibition at 1 µM (%)", "setting": "[5]; CSNK1A1 (CK1 alpha 1), 1 µM, ZLYTE, ATP Km app, listed as WEL028, 1 µM", "result": 12, "unit": "%"}, {"measurement": "inhibition at 1 µM", "setting": "[5]; read-out: Inhibition at 1 µM (%), CSNK1A1 (CK1 alpha 1), 1 µM, ZLYTE, ATP Km app", "result": 6, "unit": "%"}, {"measurement": "inhibition at 1 µM", "setting": "[6]; [17]", "result": 0, "unit": "%"}, {"measurement": "Inhibition at 1 µM (%)", "setting": "[6]; EPHB1, 1 µM, ZLYTE, ATP Km app, listed as WEL028, 1 µM", "result": "-1% and 1%"}, {"measurement": "inhibition at 1 µM", "setting": "[7]; [17]", "result": 23, "unit": "%"}, {"measurement": "Inhibition at 1 µM (%)", "setting": "[7]; FER, 1 µM, ZLYTE, ATP Km app, listed as WEL028, 1 µM", "result": 27, "unit": "%"}, {"measurement": "inhibition at 1 µM", "setting": "[7]; read-out: Inhibition at 1 µM (%), FER, 1 µM, ZLYTE, ATP Km app", "result": 20, "unit": "%"}, {"measurement": "inhibition at 1 µM", "setting": "[8]; [17]", "result": 26, "unit": "%"}, {"measurement": "Inhibition at 1 µM (%)", "setting": "[8]; IRAK1, 1 µM, Adapta, ATP Km app, listed as WEL028, 1 µM", "result": 31, "unit": "%"}, {"measurement": "inhibition at 1 µM", "setting": "[8]; read-out: Inhibition at 1 µM (%), IRAK1, 1 µM, Adapta, ATP Km app", "result": 20, "unit": "%"}, {"measurement": "Inhibition (%)", "setting": "[9]; 1 μM WEL028, 1 h preincubation", "result": 2, "unit": "%"}, {"measurement": "Inhibition at 1 µM (%)", "setting": "[9]", "result": 3, "unit": "%"}, {"measurement": "Inhibition at 1 µM (%)", "setting": "[9]; listed as WEL028, 1 µM", "result": 0, "unit": "%"}, {"measurement": "inhibition at 1 µM", "setting": "[10]; [17]", "result": -8, "unit": "%"}, {"measurement": "Inhibition at 1 µM (%)", "setting": "[10]; PIK3CB/PIK3R1 (p110 beta/p85 alpha), 1 µM, Adapta, ATP Km app, listed as WEL028, 1 µM", "result": "-10% and -7%"}, {"measurement": "Inhibition (%)", "setting": "[11]; 1 μM WEL028, 1 h preincubation", "result": 13, "unit": "%"}, {"measurement": "Inhibition at 1 µM (%)", "setting": "[11]; PKMYT1, 1 µM, LanthaScreen Binding, listed as WEL028, 1 µM", "result": 9, "unit": "%"}, {"measurement": "inhibition at 1 µM", "setting": "[11]; read-out: Inhibition at 1 µM (%), PKMYT1, 1 µM, LanthaScreen Binding", "result": 17, "unit": "%"}, {"measurement": "inhibition at 1 µM", "setting": "[12]; 1 h", "result": 1, "unit": "%"}, {"measurement": "inhibition at 1 µM", "setting": "[12]; [16]", "result": 1, "unit": "%"}, {"measurement": "Inhibition (%)", "setting": "[13]; 1 μM WEL028, 1 h preincubation", "result": 5, "unit": "%"}, {"measurement": "Inhibition at 1 µM (%)", "setting": "[13]; 1 µM, ZLYTE, ATP Km app, listed as WEL028, 1 µM", "result": "1% and 9%"}, {"measurement": "inhibition at 1 µM", "setting": "[14]; [17]", "result": 1, "unit": "%"}, {"measurement": "inhibition at 1 µM", "setting": "[14]; read-out: Inhibition at 1 µM (%), 1 µM, LanthaScreen Binding", "result": 2, "unit": "%"}, {"measurement": "IC80", "setting": "[15]; read-out: IC80-concentration (20% remaining activity)", "result": 27, "unit": "nM"}, {"measurement": "Mode of action", "setting": "[15]; recovery of WEL033 labeling after inhibitor at IC80", "result": "irreversible"}]}]}
